From patent US12195744B2, “Identification of T-cell trafficking genes and uses thereof for increasing infiltration of T-cells into solid tumors” (UNIVERSITY OF IOWA RESEARCH FOUNDATION, priority 2017, dated 2025) come the findings set out here.

“Also recorded” adds a separate entry of the source.

In assay [1] the test system is primary mouse splenocytes. Put plainly: PD-1 expression on CD8+ T cells after in vitro treatment of primary mouse splenocytes. The assay is classed as cell-based. As to conditions: mouse splenocytes treated with 2 μM iAak1 in vitro. As to the method:
FIG. 11 illustrates the results of in vitro treatment of primary mouse splenocytes with Aak1 inhibitor (iAak1) on PD-1 expression. Mouse splenocytes were treated with 2 μM concentration of iAak1 and PD-1 expression was assayed in CD8+ T cells.

For assay [2], the system named is primary mouse CD8+ T cells. Put plainly: Cell proliferation after in vitro treatment of primary mouse CD8+ T cells. It is filed as cell-based. As to conditions: primary mouse CD8+ T cells treated on day 0, optionally activated, assessed days 1-7. As to the method: FIG. 10 illustrates the results of in vitro treatment of primary mouse CD8+ T cells with Aak1 inhibitor (iAak1) on cell proliferation. Primary mouse CD8+ T cells were treated on day 0 with the indicated concentration of LP-935509 and optionally activated. Cell proliferation was assessed at days 1, 2, 3, 4, 5, 6, and 7.

Assay [3] deals with EG7 tumors. Put plainly: Growth of EG7 tumors in mice. It is filed as in vivo. As to conditions: oral gavage on same days as twice weekly IP aPD1, from 3 days post inoculation, vs DMSO. The source says: FIG. 12 illustrates the results of Aak1 inhibitor (iAak1) on the growth of EG7 tumors in mice. Mice were inoculated with EG7 tumor cells. Treatment began three (3) days post tumor inoculation. All mice received twice weekly IP injections of aPD1. Five (5) mice received DMSO, and five (5) mice received iAak1 via oral gavage on same days as aPD1 treatment.

The subject of assay [4] is CD8+ T cells in EG7 tumor model. Put plainly: PD-1 expression in tumor-infiltrating versus splenic CD8+ T cells in EG7 tumor model. It is filed as in vivo, mice. As to conditions: oral gavage with twice weekly IP aPD1, vs DMSO, listed as iAak1. The source says: FIG. 13 illustrates the results of Aak1 inhibitor (iAak1) on PD-1 expression in tumor-infiltrating versus splenic CD8+ T cells in an EG7 tumor model. Mice were inoculated with EG7 tumor cells. Treatment began three (3) days post tumor inoculation. All mice received twice weekly IP injections of aPD1. Five (5) mice received DMSO, and five (5) mice received Aak1inh via oral gavage on same days as aPD1 treatment.

For assay [5], the system named is EG7 cells. Put plainly: Growth of EG7 cells in vitro. The assay is classed as cell-based. The conditions noted are these: concentrations as high as 2 μM; listed as iAak1. The source says: FIG. 14 illustrates the results of Aak1 inhibitor (iAak1) on growth of EG7 cells in vitro.
Assay [6] relates to A20 tumors. Put plainly: Growth of A20 tumors in mice. It is filed as in vivo. From the text:
FIG. 15 illustrates the results of Aak1 inhibitor (iAak1) on the growth of A20 tumors in mice. Mice were inoculated with A20 tumor cells. Treatment began ten (10) days post tumor inoculation. All mice received twice weekly IP injections of aPD1. Ten (10) mice received DMSO, and ten (10) mice received iAak1 via oral gavage daily.

The test system of assay [7] is primary mouse CD8+ T cells. As to the kind of experiment: PD-1 expression after in vitro treatment of primary mouse CD8+ T cells. The assay is classed as cell-based. The conditions noted are these: activated primary mouse CD8+ T cells, measured at days 6, 7, 8 and 9. The procedure:
FIG. 9 illustrates the results of in vitro treatment of primary mouse CD8+ T cells with Aak1 inhibitor (iAak1 aka LP-935509) on PD-1 expression. Primary mouse CD8+ T cells were treated with the indicated concentration of LP-935509 and PD-1 expression was measured at days 6, 7, 8, and 9.

Turning to `COc1ncccc1-c1cnn2ccc(N3CCN(C(=O)OC(C)C)CC3)nc12` [LP-935509], the “PD-1 expression in CD8+ T cells” value in assay [1] is “modest increase; also recorded: increases”. Further, the cell proliferation entry in assay [2] is given as “modest enhancement”; in assay [2] (listed as iAak1), “modestly enhances”. Further, the “EG7 tumor growth in vivo” value in assay [3] is on record as “increased”. Also, the “PD-1 expression in CD8+ T cells isolated from tumors” value in assay [4] is “increased”. In addition, the “EG7 cell proliferation in vitro” value in assay [5] is “not observed to directly increase; also recorded: did not directly increase”. In assay [6] (A20 tumors, daily oral gavage with twice weekly IP aPD1, vs DMSO), the “CD3+ T cell infiltration of the tumor” value is reported as “moderate inhibit”. Also, the “A20 tumor growth in vivo” value in assay [6] (daily oral gavage with twice weekly IP aPD1, from 10 days post inoculation, vs DMSO, listed as iAak1) is “increased; also recorded: enhanced”. The PD-1 expression result in assay [7] is “transient increase”.
